Measurements published in patent US6455075B1, “Method for control of insects on plants and plant tissue” (priority 1996, dated 2002).

Tests used:
plant pathogens = conditions: dilute solution
insect populations = test system: insect populations
Procedure: (§1) Long and 25 ft. Wide, was filled with various species of household plants, of which most had infestations of some type of insect pest. (Table 2) All other treatments were stopped two weeks prior to treatment with the solution of the present invention. Yellow sticky cards were placed throughout the greenhouse for three days prior to treatment and then were counted for the various species of insects present. The greenhouse was then treated with 12 gallons of a 1:50 dilution of the solution of the present invention using a Dram™ hydraulic sprayer. The house was sprayed on three day intervals for a period of three weeks. Sticky cards were placed in selected areas through out the greenhouse during the three week period.

[1] = test system: various species of household plants; conditions: throughout the three week treatment period, most plants in bloom
Procedure: as §1

THRIPS = test system: THRIPS
Procedure: as §1

[2] = test system: mealy bug, white fly, aphids, spider mites, and thrip
Procedure: (§2) To insure objectivity, the greenhouses selected were not all commonly owned and many varieties of roses were included in the testing. […] The effectiveness of the spray was measured by microbial culture of the surfaces of the greenhouse and the leaf surfaces of the treated and untreated plants. […] It is well known that these fungi are airborne.

Roses = conditions: after six weeks of observation
Procedure: as §2

fungus gnats = conditions: greenhouse treatment; probably due to removal of food source
Procedure: as §2

[3] = test system: total mold count, including Botrytis and those molds causing Powdery Mildew
Procedure: as §2

[4] = test system: black mold growing on the excrement of the aphids; conditions: leaves of New Guinea Impatiens
[5] = test system: Botrytis and Black Spot Mold; conditions: flowers wetted with dilute solution before wrapping
Procedure: In the cut flower industry, the moist flowers are wrapped in plastic prior to placement in the shipping boxes for transit. Ice is added to the boxes in many cases to help keep the flowers fresh during transit. This closed, moist environment is very conducive to Botrytis and Black Spot Mold.

Botrytis cinerea = conditions: 0.05% Hydrogen Peroxide mist during entire propagation; one mature leaf from each of 10 cuttings, averaged
Procedure: In this study 500 zonal geranium cuttings were treated with a mist during the entire course of their propagation. One mature leaf from each of 10 terminal stem cuttings following treatment were sampled and the data was averaged.

living plants = conditions: dilute solution
[6] = test system: root rot and other infectious pathogens; conditions: cuttings dipped in 0.5% hydrogen peroxide, dilute solution in misting system

OO [hydrogen peroxide]
plant pathogens present on the surfaces (plant pathogens): either totally eradicated or substantially reduced
reduction of insect populations (insect populations; 10 days and post 5 treatments): marked reduction of insect populations
reduction in insect populations (insect populations; after one treatment, 72 hr card exposure): did not indicate any significant reduction
phytotoxicity or other detrimental effect to the plants [1]: no evidence of phytotoxicity
reduction of Thrips (THRIPS; 10 days and post 5 treatments, seven day card exposure): greatly reduced
average Thrips present per card (THRIPS; after subsequent treatments, 72 hour exposure time): 7-10
effect upon insect pests present in the greenhouse ([2]; field trials): lethal effect
effect on larval stages of insect pests ([2]; greenhouse treatment of the preceding example): destruction of the larval stages
adverse effects upon the plants (Roses): No adverse effects
effect on fungus gnats (fungus gnats): eliminated
total mold count ([3]; 1 % solution sprayed at least four times): killed or seriously reduced the total mold count
treated plants and surfaces free of total fungi (microbial culture) ([3]; after the first application of 1 % hydrogen peroxide): ~100%
recontamination by fungi (microbial culture) ([3]; daily applications of 500 PPM over several weeks): no recontamination by fungi occurred
effect on black mold [4]: quickly neutralized the mold
appearance of detrimental fungi [5]: prevented and or delayed the appearance of the detrimental fungi
MICRO-ORGANISMS/LEAF (Botrytis cinerea): 38
adverse effects on the plants (living plants): no adverse affects
cutting loss [6]: virtually eliminated cutting loss
